Patent US6339045B1, “N-(unsubstituted or substituted)-4-substituted-6-(unsubstituted or substituted)phenoxy-2-pyridinecarboxamides or thiocarboxamides, processes for producing the same, and herbicides” (Kureha Kagaku Kogyo Kabushiki Kaisha, priority 1995, dated 2002)

How the values were obtained:
Assay in all cases: Herbicidal effect by foliage and soil treatment
Format in all cases: in vivo
Details in all cases: 10 g ai/10a, evaluated after 14 days
[1] = test system: wild chamomile (Matricaria chamomilla)
Summary of the method: (§1)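 Potted seedlings at cotyledon-to-bifoliate stage were sprayed with compound in Tween 20/water at a predetermined rate and grown in a greenhouse at 19 to 25° C. Growth was rated against untreated plants after 14 days.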

[2] = test system: redroot pigweed (Amaranthus retroflexus)
Summary of the method: as §1

[3] = test system: cleavers (Galium aparine)
Summary of the method: as §1

[4] = test system: kediock (Sinapis arvensis)
Summary of the method: as §1

[5] = test system: common blackjack (Bidens pilosa)
Summary of the method: as §1

[6] = test system: ivyleafspeedwell (Veronica hederaefolia)
Summary of the method: as §1

[7] = test system: black nightshade (Solanum nigrum)
Summary of the method: as §1

[8] = test system: common chickweed (Stellaria media)
Summary of the method: as §1

[9] = test system: sicklepod (Cassia obtusifolia)
Summary of the method: as §1

[10] = test system: velvetleaf (Abutilon theophrasti)
Summary of the method: as §1

[11] = test system: field bindweed (Convolvulus arvensis)
Summary of the method: as §1

Row | Structure (SMILES) | herbicidal activity rating, MC (Matricaria chamomilla) [1] | herbicidal activity rating, AR (Amaranthus retroflexus) [2] | herbicidal activity rating, GA (Galium aparine) [3] | herbicidal activity rating, SA (Sinapis arvensis) [4] | herbicidal activity rating, BP (Bidens pilosa) [5] | herbicidal activity rating, VH (Veronica hederaefolia) [6] | herbicidal activity rating, SN (Solanum nigrum) [7] | herbicidal activity rating, SM (Stellaria media) [8] | herbicidal activity rating, CO (Cassia obtusifolia) [9] | herbicidal activity rating, AT (Abutilon theophrasti) [10] | herbicidal activity rating, CA (Convolvulus arvensis) [11]
1 | COc1cc(Oc2cccc(C(F)(F)F)c2)nc(C(=O)Nc2ccccc2)c1 [Compound I-1, N-phenyl-4-methoxy-6-{3-(trifluoromethyl)phenoxy}-2-pyridine carboxamide] | 4 (percentage of weeds killed was not less than 60% and less than 80%) | 5 (percentage of weeds killed was not less than 80%) | 5 (percentage of weeds killed was not less than 80%) | 5 (percentage of weeds killed was not less than 80%) | 5 (percentage of weeds killed was not less than 80%) | 5 (percentage of weeds killed was not less than 80%) | 5 (percentage of weeds killed was not less than 80%) | 4 (percentage of weeds killed was not less than 60% and less than 80%) | 5 (percentage of weeds killed was not less than 80%) | 4 (percentage of weeds killed was not less than 60% and less than 80%) | 4 (percentage of weeds killed was not less than 60% and less than 80%)
2 | COc1cc(Oc2cccc(C(F)(F)F)c2)nc(C(=O)NCCO)c1 [Compound I-89] | 3 (percentage of weeds killed was not less than 40% and less than 60%) | 5 (percentage of weeds killed was not less than 80%) | 5 (percentage of weeds killed was not less than 80%) | 5 (percentage of weeds killed was not less than 80%) | 5 (percentage of weeds killed was not less than 80%) | 5 (percentage of weeds killed was not less than 80%) | 5 (percentage of weeds killed was not less than 80%) | 5 (percentage of weeds killed was not less than 80%) | 5 (percentage of weeds killed was not less than 80%) | 4 (percentage of weeds killed was not less than 60% and less than 80%) | 4 (percentage of weeds killed was not less than 60% and less than 80%)
3 | CCNC(=O)c1cc(OC)cc(Oc2cccc(C(F)(F)F)c2)n1 [Compound I-51] | 4 (percentage of weeds killed was not less than 60% and less than 80%) | 5 (percentage of weeds killed was not less than 80%) | 5 (percentage of weeds killed was not less than 80%) | 5 (percentage of weeds killed was not less than 80%) | 3 (percentage of weeds killed was not less than 40% and less than 60%) | 5 (percentage of weeds killed was not less than 80%) | 5 (percentage of weeds killed was not less than 80%) | 5 (percentage of weeds killed was not less than 80%) | 5 (percentage of weeds killed was not less than 80%) | 5 (percentage of weeds killed was not less than 80%) | 4 (percentage of weeds killed was not less than 60% and less than 80%)
4 | COc1cc(Oc2cccc(C(F)(F)F)c2)nc(C(=O)NC2CCCCC2)c1 [Compound I-43] | 4 (percentage of weeds killed was not less than 60% and less than 80%) | 5 (percentage of weeds killed was not less than 80%) | 5 (percentage of weeds killed was not less than 80%) | 5 (percentage of weeds killed was not less than 80%) | 4 (percentage of weeds killed was not less than 60% and less than 80%) | 5 (percentage of weeds killed was not less than 80%) | 5 (percentage of weeds killed was not less than 80%) | 5 (percentage of weeds killed was not less than 80%) | 5 (percentage of weeds killed was not less than 80%) | 4 (percentage of weeds killed was not less than 60% and less than 80%) | 5 (percentage of weeds killed was not less than 80%)
5 | COc1cc(Oc2cccc(C(F)(F)F)c2)nc(C(=O)N2CC2C)c1 (stereo not shown) [Compound I-300, 4-methoxy-2-{N-(2-methylaziridinyl)carbonyl}-6-{3-(trifluoromethyl)phenoxy}-2-pyridine] | 2 (percentage of weeds killed was not less than 20% and less than 40%) | 5 (percentage of weeds killed was not less than 80%) | 5 (percentage of weeds killed was not less than 80%) | 5 (percentage of weeds killed was not less than 80%) | 5 (percentage of weeds killed was not less than 80%) | 5 (percentage of weeds killed was not less than 80%) | 5 (percentage of weeds killed was not less than 80%) | 5 (percentage of weeds killed was not less than 80%) | 5 (percentage of weeds killed was not less than 80%) | 4 (percentage of weeds killed was not less than 60% and less than 80%) | 4 (percentage of weeds killed was not less than 60% and less than 80%)
6 | CNN(C)C(=O)c1cc(OC)cc(Oc2cccc(C(F)(F)F)c2)n1 [Compound I-202, N-methyl-N-methylamino-4-methoxy-6-{3-(trifluoromethyl)phenoxy}-2-pyridine carboxamide] | 3 (percentage of weeds killed was not less than 40% and less than 60%) | 5 (percentage of weeds killed was not less than 80%) | 5 (percentage of weeds killed was not less than 80%) | 5 (percentage of weeds killed was not less than 80%) | 4 (percentage of weeds killed was not less than 60% and less than 80%) | 5 (percentage of weeds killed was not less than 80%) | 5 (percentage of weeds killed was not less than 80%) | 5 (percentage of weeds killed was not less than 80%) | 5 (percentage of weeds killed was not less than 80%) | 4 (percentage of weeds killed was not less than 60% and less than 80%) | 4 (percentage of weeds killed was not less than 60% and less than 80%)
7 | C=CCONC(=O)c1cc(OC)cc(Oc2cccc(C(F)(F)F)c2)n1 [Compound I-100] | 4 (percentage of weeds killed was not less than 60% and less than 80%) | 5 (percentage of weeds killed was not less than 80%) | 5 (percentage of weeds killed was not less than 80%) | 5 (percentage of weeds killed was not less than 80%) | 4 (percentage of weeds killed was not less than 60% and less than 80%) | 5 (percentage of weeds killed was not less than 80%) | 5 (percentage of weeds killed was not less than 80%) | 4 (percentage of weeds killed was not less than 60% and less than 80%) | 5 (percentage of weeds killed was not less than 80%) | 5 (percentage of weeds killed was not less than 80%) | 4 (percentage of weeds killed was not less than 60% and less than 80%)
8 | CCOc1cc(Oc2cccc(C(F)(F)F)c2)nc(C(=O)NC(C)C)c1 [Compound I-59] | 4 (percentage of weeds killed was not less than 60% and less than 80%) | 5 (percentage of weeds killed was not less than 80%) | 5 (percentage of weeds killed was not less than 80%) | 5 (percentage of weeds killed was not less than 80%) | 3 (percentage of weeds killed was not less than 40% and less than 60%) | 5 (percentage of weeds killed was not less than 80%) | 5 (percentage of weeds killed was not less than 80%) | 5 (percentage of weeds killed was not less than 80%) | 5 (percentage of weeds killed was not less than 80%) | 4 (percentage of weeds killed was not less than 60% and less than 80%) | 4 (percentage of weeds killed was not less than 60% and less than 80%)
